Test results reported in ChEMBL document CHEMBL1909046, “DrugMatrix in vitro pharmacology data”.
pIC50, pKi: −log10 of the molar value.

How the values were obtained:
[1] = DRUGMATRIX: ATPase, Na+/K+ enzyme inhibition (substrate: ATP); assay type: tissue-based, Sus scrofa, Heart; settings: Not Active = under 50% inhibition at 10 µM
[2] = DRUGMATRIX: beta-Lactamase enzyme inhibition (substrate: Nitrocefin); design: species or system Bacillus cereus; settings: Not Active = under 50% inhibition at 10 µM
[3] = target: T1, 3-hydroxy-3-methylglutaryl-coenzyme A reductase (Homo sapiens, UniProt P04035); design: species or system Escherichia coli;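 note: enzyme inhibition assay of HMG-CoA reductase using radiolabeled [14C]HMG-CoA as substrate; in other assays of this panel Not Active means under 50% inhibition at 10 µM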
T1 sequence (P04035 whole entry): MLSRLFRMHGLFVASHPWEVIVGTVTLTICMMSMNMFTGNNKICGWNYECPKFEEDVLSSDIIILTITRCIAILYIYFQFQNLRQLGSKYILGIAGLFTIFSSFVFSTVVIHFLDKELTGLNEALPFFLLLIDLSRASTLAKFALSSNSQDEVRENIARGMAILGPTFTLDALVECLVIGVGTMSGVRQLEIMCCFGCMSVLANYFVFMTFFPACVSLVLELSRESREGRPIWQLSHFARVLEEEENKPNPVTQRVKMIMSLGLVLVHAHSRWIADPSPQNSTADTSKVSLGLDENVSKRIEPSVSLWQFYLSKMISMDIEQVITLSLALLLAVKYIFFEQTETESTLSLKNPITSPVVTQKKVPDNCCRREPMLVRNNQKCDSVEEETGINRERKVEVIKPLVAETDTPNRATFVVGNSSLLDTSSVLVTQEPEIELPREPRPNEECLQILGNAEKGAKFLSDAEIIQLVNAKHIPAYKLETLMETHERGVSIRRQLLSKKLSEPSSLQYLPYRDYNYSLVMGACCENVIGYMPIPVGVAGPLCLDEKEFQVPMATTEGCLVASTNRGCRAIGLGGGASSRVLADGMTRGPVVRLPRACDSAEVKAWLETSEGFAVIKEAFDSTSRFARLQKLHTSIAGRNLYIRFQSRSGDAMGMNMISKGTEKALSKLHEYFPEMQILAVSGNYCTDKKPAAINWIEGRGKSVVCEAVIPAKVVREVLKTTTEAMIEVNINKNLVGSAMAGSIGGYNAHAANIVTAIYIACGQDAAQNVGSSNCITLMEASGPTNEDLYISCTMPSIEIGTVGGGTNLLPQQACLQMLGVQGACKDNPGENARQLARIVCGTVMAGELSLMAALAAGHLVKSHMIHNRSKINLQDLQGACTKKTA

[4] = DRUGMATRIX: Leukotriene, BLT (LTB4) radioligand binding (ligand: [3H]LTB4); assay type: cell membranes, Membrane; settings: u-937, Not Active = under 50% inhibition at 10 µM; for pIC50: read-out: IC50; for pKi: read-out: Ki
[5] = DRUGMATRIX: Nicotinic Acetylcholine radioligand binding (ligand: [125I] Epibatidine); assay type: cell membranes, Membrane; settings: imr-32; Not Active = under 50% inhibition at 10 µM
[6] = target: Kappa-type opioid receptor (Homo sapiens, UniProt P41145); test: DRUGMATRIX: Opiate kappa (OP2, KOP) radioligand binding (ligand: [3H] Diprenorphine); assay type: cell membranes, HEK293, Membrane; settings: hek293; Not Active = under 50% inhibition at 10 µM
[7] = target: T2, Interstitial collagenase (Homo sapiens, UniProt P03956); test: biochemical; assay type: tissue-based, Rheumatoid synovial fibroblasts;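 note: MMP-1 enzyme inhibition assay using a peptide substrate; in other assays of this panel Not Active means under 50% inhibition at 10 µM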
T2 sequence (P03956 whole entry): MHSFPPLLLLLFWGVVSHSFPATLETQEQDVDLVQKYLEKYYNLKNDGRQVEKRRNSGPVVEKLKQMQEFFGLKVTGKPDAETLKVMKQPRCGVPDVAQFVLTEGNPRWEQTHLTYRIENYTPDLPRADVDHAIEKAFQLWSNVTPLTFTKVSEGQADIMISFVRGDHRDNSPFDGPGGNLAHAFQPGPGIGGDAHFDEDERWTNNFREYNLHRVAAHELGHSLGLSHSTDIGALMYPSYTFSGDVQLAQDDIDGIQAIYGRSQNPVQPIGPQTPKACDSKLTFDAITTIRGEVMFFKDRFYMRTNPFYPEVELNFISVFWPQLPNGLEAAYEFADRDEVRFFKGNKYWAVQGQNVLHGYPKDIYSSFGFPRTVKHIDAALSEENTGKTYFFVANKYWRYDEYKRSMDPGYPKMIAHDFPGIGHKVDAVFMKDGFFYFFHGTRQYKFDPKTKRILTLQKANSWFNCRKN

Kappa-type opioid receptor, sequence (P41145 whole entry): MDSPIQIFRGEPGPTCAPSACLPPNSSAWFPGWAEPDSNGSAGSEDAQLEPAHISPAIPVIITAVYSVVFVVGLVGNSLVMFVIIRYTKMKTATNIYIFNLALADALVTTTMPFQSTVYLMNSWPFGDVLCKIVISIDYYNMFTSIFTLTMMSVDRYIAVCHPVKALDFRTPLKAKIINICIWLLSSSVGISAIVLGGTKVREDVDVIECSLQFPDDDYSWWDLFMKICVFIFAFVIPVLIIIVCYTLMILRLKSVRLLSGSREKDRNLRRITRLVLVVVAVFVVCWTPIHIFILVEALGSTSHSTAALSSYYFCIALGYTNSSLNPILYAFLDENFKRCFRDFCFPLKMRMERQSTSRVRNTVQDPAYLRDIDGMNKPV

Row | SMILES | IC50 [1] | Ki [1] | IC50 [2] | Ki [2] | IC50 [3] | IC50 [4] | Ki [4] | IC50 [5] | Ki [5] | IC50 [6] | IC50 [7] | pIC50 [4] | pKi [4]
1 | COc1ccc2c(c1OC)C(=O)O[C@@H]2[C@H]1c2c(cc3c(c2OC)OCO3)CCN1C [NOSCAPINE] | Not Active | Not Active | Not Active | Not Active | Not Active | Not Active | Not Active | Not Active | Not Active | Not Active | Not Active | – | –
2 | NC(=O)N1c2ccccc2CC(=O)c2ccccc21 [OXCARBAZEPINE] | Not Active | Not Active | Not Active | Not Active | Not Active | Not Active | Not Active | Not Active | Not Active | Not Active | Not Active | – | –
3 | COc1ccnc(C[S+]([O-])c2nc3ccc(OC(F)F)cc3[nH]2)c1OC (stereo not given) [PANTOPRAZOLE] | Not Active | Not Active | Not Active | Not Active | Not Active | Not Active | Not Active | Not Active | Not Active | Not Active | Not Active | – | –
4 | N=C(N)c1ccc(OCCCCCOc2ccc(C(=N)N)cc2)cc1 [PENTAMIDINE] | Not Active | Not Active | Not Active | Not Active | Not Active | – | – | Not Active | Not Active | Not Active | Not Active | 6.62 | 7.21
5 | CCc1ccc(CCOc2ccc(CC3SC(=O)NC3=O)cc2)nc1 (stereo not given) [PIOGLITAZONE] | Not Active | Not Active | Not Active | Not Active | Not Active | – | – | Not Active | Not Active | Not Active | Not Active | 4.06 | 4.66
6 | CCCNC(C)C(=O)Nc1ccccc1C (stereo not given) [PRILOCAINE] | Not Active | Not Active | Not Active | Not Active | Not Active | Not Active | Not Active | Not Active | Not Active | Not Active | Not Active | – | –
7 | CCN(CC)CCNC(=O)c1ccc(N)cc1 [PROCAINAMIDE] | Not Active | Not Active | Not Active | Not Active | Not Active | Not Active | Not Active | Not Active | Not Active | Not Active | Not Active | – | –
8 | CCN(CC)CCCC(C)Nc1c2ccc(Cl)cc2nc2ccc(OC)cc12 (stereo not given) [QUINACRINE] | Not Active | Not Active | Not Active | Not Active | Not Active | Not Active | Not Active | Not Active | Not Active | Not Active | Not Active | – | –
9 | C[C@]12C=CC(=O)C=C1CC[C@H]1[C@@H]3C[C@@H](O)[C@](O)(C(=O)CO)[C@@]3(C)C[C@H](O)[C@@]12F [TRIAMCINOLONE] | Not Active | Not Active | Not Active | Not Active | Not Active | Not Active | Not Active | Not Active | Not Active | Not Active | Not Active | – | –
10 | CC[C@]1(O)C[C@@H]2CN(CCc3c([nH]c4ccccc34)[C@@](C(=O)OC)(c3cc4c(cc3OC)N(C)[C@H]3[C@@](O)(C(N)=O)[C@H](O)[C@]5(CC)C=CCN6CC[C@]43[C@@H]65)C2)C1 [VINDESINE] | Not Active | Not Active | Not Active | Not Active | Not Active | Not Active | Not Active | Not Active | Not Active | Not Active | Not Active | – | –
